Measurements from ChEMBL document CHEMBL4334438, “Discovery of novel glycogen synthase kinase-3α inhibitors: Structure-based virtual screening, preliminary SAR and biological evaluation for treatment of acute myeloid leukemia” (Eur J Med Chem, 2019).

Tests used:
[1] = test system: Tyrosine-protein kinase ABL1 (Homo sapiens), P00519 [T315I]; experiment: Inhibition of human ABL1 T315I mutant (27 to end residues) assessed as residual activity at 1 uM using EAIYAAPFAKKK as substrate incubated for 40 mins in presence of [gamma-33ATP] by scintillation counting based radiometry assay relative to control
[2] = biological target: Activin receptor type-1-like (Homo sapiens) (UniProt P37023); experiment: Inhibition of recombinant human ALK1 (142 to end residues) assessed as residual activity at 1 uM using casein as substrate incubated for 40 mins in presence of [gamma-33ATP] by scintillation counting based radiometry assay relative to control
Sequence of Activin receptor type-1-like (Homo sapiens) (P37023 whole entry): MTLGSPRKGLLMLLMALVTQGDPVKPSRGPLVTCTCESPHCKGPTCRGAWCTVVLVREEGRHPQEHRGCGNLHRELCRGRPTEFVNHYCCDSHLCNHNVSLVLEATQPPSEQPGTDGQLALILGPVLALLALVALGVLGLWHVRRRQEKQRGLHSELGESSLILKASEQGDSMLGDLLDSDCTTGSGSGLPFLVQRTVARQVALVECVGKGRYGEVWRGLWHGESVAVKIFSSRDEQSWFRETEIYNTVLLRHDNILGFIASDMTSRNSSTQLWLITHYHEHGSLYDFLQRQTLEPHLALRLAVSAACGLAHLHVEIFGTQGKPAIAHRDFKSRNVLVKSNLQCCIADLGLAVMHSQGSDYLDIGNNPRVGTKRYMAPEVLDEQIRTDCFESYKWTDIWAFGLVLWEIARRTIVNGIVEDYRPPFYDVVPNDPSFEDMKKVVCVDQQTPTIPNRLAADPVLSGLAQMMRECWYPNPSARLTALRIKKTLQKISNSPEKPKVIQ

[3] = test system: Tyrosine-protein kinase receptor UFO (Homo sapiens), P30530 [Q764R]; experiment: Inhibition of recombinant human Axl Q764R mutant (473 to end residues) assessed as residual activity at 1 uM using KKSRGDYMTMQIG as substrate incubated for 40 mins in presence of [gamma-33ATP] by scintillation counting based radiometry assay relative to control
[4] = biological target: Cyclin-dependent kinase-like 4 (Homo sapiens) (UniProt Q5MAI5); experiment: Inhibition of recombinant full length human CDKL4 assessed as residual activity at 1 uM in presence of [gamma-33ATP] by scintillation counting based radiometry assay relative to control
[5] = biological target: Ephrin type-A receptor 3 (Homo sapiens) (UniProt P29320); experiment: Inhibition of recombinant human EphA3 (578 to end residues) assessed as residual activity at 1 uM using poly(Glu, Tyr) 4:1 as substrate at 40 mins in presence of [gamma-33ATP] by scintillation counting based radiometry assay relative to control
Sequence of Ephrin type-A receptor 3 (Homo sapiens) (P29320 whole entry, the tested form may be a part): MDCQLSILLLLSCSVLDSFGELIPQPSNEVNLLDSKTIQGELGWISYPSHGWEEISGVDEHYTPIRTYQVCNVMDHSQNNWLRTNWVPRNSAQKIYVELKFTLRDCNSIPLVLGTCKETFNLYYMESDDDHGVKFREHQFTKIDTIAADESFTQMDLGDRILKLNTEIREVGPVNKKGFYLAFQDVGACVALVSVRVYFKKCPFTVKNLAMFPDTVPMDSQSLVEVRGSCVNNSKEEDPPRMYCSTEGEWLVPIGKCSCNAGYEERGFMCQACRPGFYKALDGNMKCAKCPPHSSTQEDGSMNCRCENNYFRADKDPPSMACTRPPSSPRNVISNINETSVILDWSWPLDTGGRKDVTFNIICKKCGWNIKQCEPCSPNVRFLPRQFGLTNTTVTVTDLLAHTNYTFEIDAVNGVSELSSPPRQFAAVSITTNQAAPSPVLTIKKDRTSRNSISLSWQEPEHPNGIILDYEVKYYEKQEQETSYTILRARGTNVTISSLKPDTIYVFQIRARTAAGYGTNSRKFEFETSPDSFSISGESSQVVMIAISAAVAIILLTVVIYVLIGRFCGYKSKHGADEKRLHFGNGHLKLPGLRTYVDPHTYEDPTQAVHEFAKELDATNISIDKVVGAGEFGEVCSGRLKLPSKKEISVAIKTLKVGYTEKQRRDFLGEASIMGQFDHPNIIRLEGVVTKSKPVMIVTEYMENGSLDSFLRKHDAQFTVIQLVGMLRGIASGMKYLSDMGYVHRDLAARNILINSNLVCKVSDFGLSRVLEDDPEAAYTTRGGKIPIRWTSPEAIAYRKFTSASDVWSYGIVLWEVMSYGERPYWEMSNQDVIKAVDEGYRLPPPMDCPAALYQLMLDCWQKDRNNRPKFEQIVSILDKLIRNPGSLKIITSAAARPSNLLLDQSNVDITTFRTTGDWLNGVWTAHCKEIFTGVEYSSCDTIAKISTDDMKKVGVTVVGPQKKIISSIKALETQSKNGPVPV

[6] = biological target: Ephrin type-A receptor 5 (Homo sapiens) (UniProt P54756); experiment: Inhibition of recombinant human EphA5 (655to 956 residues) assessed as residual activity at 1 uM using poly(Glu, Tyr) 4:1 as substrate at 40 mins in presence of [gamma-33ATP] by scintillation counting based radiometry assay relative to control
[7] = biological target: Eukaryotic translation initiation factor 2-alpha kinase 1 (Homo sapiens) (UniProt Q9BQI3); experiment: Inhibition of human HRI (140 to end residues) assessed as residual activity at 1 uM using RSRSRSRSRSRSRSR as substrate after 120 mins by [gamma-33ATP] radiometric assay relative to control
[8] = biological target: Tyrosine-protein kinase JAK2 (Homo sapiens) (UniProt O60674); experiment: Inhibition of human JAK2 (808 to end residues) assessed as residual activity at 1 uM using KTFCGTPEYLAPEVRREPRILSEEEQEMFRDFDYIADWC as substrate after 40 mins by [gamma-33ATP] radiometric assay relative to control
[9] = biological target: Mitogen-activated protein kinase 10 (Homo sapiens) (UniProt P53779); experiment: Inhibition of human JNK3 assessed as residual activity at 1 uM using peptide as substrate after 40 mins by [gamma-33ATP] radiometric assay relative to control
[10] = biological target: Tyrosine-protein kinase Lck (Homo sapiens) (UniProt P06239); experiment: Inhibition of recombinant full length human LCK assessed as residual activity at 1 uM using KVEKIGEGTYGVVYK as substrate after 40 mins in presence of [gamma-33ATP] by scintillation counting based radiometry assay relative to control
Sequence of Tyrosine-protein kinase Lck (Homo sapiens) (P06239 2-509 limits assumed): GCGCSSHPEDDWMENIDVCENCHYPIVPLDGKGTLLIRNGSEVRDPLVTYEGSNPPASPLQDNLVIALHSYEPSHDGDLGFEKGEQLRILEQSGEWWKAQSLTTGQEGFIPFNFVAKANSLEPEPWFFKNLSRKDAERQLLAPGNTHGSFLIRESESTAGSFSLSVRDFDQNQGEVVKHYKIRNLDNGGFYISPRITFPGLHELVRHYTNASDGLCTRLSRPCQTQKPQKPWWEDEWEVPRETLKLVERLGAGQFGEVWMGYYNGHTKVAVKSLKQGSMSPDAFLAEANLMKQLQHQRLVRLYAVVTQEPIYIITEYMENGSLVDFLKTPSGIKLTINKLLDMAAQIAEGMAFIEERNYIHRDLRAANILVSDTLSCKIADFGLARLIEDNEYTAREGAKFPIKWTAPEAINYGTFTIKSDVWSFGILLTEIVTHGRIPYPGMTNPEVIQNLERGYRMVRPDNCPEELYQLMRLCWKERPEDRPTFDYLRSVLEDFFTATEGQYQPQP

[11] = biological target: LIM domain kinase 1 (Homo sapiens) (UniProt P53667); experiment: Inhibition of recombinant human LIMK1 (285 to 638 residues) assessed as residual activity at 1 uM using cofilin as substrate after 40 mins in presence of [gamma-33ATP] by scintillation counting based radiometry assay relative to control
Sequence of LIM domain kinase 1 (Homo sapiens) (P53667 whole entry, looked up, the tested form may be a part): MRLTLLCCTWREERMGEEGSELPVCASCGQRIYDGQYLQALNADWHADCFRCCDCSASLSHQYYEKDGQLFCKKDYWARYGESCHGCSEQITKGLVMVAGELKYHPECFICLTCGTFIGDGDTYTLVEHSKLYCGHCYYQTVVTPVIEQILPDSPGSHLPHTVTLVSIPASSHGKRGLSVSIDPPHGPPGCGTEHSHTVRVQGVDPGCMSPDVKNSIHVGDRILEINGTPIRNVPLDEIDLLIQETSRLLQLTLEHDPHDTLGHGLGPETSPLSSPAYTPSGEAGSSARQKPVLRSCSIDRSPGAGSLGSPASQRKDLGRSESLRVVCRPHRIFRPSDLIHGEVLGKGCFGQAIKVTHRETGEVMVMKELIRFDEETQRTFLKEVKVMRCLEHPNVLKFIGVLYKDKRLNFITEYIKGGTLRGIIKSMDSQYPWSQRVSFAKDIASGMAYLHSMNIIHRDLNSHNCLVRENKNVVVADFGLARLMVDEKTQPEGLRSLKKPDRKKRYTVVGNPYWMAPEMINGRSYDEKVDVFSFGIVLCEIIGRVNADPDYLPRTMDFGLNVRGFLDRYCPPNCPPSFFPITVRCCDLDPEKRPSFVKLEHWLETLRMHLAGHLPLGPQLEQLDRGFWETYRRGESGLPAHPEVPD

[12] = biological target: Hepatocyte growth factor receptor (Homo sapiens) (UniProt P08581); experiment: Inhibition of recombinant human MET A1209G/V1290L mutant (974 to end residues) assessed as residual activity at 1 uM using KKKGQEEEYVFIE as substrate incubated for 40 mins in presence of [gamma-33ATP by scintillation counting based radiometry assay relative to control
[13] = biological target: Mitogen-activated protein kinase kinase kinase 11 (Homo sapiens) (UniProt Q16584); experiment: Inhibition of recombinant human MLK3 assessed as residual activity at 1 uM using by scintillation counting based radiometry assay relative to control
Sequence of Mitogen-activated protein kinase kinase kinase 11 (Homo sapiens) (Q16584 whole entry, looked up): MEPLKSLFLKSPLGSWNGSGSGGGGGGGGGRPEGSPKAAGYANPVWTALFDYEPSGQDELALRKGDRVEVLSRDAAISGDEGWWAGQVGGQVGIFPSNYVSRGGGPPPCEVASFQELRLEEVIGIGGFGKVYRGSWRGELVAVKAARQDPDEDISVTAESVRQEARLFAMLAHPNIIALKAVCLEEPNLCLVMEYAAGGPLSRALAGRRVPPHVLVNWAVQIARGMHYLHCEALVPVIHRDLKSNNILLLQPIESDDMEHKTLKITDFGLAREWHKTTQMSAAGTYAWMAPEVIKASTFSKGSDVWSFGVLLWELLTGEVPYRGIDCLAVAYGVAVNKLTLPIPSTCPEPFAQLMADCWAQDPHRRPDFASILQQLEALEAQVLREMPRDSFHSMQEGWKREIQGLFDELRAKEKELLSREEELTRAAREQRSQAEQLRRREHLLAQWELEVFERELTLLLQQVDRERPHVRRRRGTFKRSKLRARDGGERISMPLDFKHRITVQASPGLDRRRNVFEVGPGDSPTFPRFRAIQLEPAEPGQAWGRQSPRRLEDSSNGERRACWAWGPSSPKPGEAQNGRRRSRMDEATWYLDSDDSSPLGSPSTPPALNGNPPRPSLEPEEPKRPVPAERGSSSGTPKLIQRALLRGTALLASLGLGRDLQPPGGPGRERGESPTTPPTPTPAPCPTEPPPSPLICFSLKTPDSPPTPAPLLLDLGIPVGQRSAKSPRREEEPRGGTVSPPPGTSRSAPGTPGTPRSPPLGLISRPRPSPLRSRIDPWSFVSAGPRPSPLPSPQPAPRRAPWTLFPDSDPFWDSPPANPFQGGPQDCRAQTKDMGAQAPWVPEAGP

[14] = biological target: Serine/threonine-protein kinase 3 (Homo sapiens) (UniProt Q13188); experiment: Inhibition of recombinant full-length human MST2 (2 to end residues) assessed as residual activity at 1 uM using myelin basic protein as substrate measured after 40 mins in presence of [gamma33P]ATP by scintillation counting method relative to control
[15] = biological target: Phosphorylase b kinase gamma catalytic chain, skeletal muscle/heart isoform (Homo sapiens) (UniProt Q16816); experiment: Inhibition of recombinant full-length human PhKgamma1 assessed as residual activity at 1 uM using KKLNRTLSFAEPG as substrate measured after 120 mins in presence of [gamma33P]ATP by scintillation counting method relative to control
Sequence of Phosphorylase b kinase gamma catalytic chain, skeletal muscle/heart isoform (Homo sapiens) (Q16816 whole entry, looked up, canonical isoform): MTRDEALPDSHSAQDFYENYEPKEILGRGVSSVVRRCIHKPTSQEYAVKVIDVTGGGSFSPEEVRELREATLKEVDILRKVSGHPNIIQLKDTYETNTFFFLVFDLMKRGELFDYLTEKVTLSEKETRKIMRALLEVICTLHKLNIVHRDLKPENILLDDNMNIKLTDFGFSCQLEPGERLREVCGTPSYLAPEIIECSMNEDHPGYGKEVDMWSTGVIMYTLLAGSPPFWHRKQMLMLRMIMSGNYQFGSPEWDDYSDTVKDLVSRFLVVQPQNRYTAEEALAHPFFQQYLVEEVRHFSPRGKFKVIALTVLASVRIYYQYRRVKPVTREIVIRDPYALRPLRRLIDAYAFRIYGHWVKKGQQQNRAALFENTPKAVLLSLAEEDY

[16] = biological target: Protein kinase C iota type (Homo sapiens) (UniProt P41743); experiment: Inhibition of recombinant full-length human PKCiota assessed as residual activity at 1 uM using ERMRPRKRQGSVRRRV as substrate incubated for 40 mins in presence of [gamma33P]ATP by scintillation counting based radiometry assay relative to control
[17] = biological target: Serine/threonine-protein kinase D2 (Homo sapiens) (UniProt Q9BZL6); experiment: Inhibition of recombinant full-length human PKD2 assessed as residual activity at 1 uM using KKLNRTLSVA as substrate measured after 40 mins in presence of [gamma33P]ATP by scintillation counting method relative to control
[18] = test system: Serine/threonine-protein kinase N1 (Homo sapiens), Q16512 [V901I]; experiment: Inhibition of recombinant human PRK1 V901I mutant (498 to end residues) assessed as residual activity at 1 uM using KKLNRTLSFAEPG as substrate measured after 40 mins in presence of [gamma33P]ATP by scintillation counting method relative to control
[19] = biological target: Serine/threonine-protein kinase TBK1 (Homo sapiens) (UniProt Q9UHD2); experiment: Inhibition of recombinant full-length human TBK1 at 1 uM assessed as residual activity at 1 uM using KRRRALS(p)VASLPGL as substrate measured after 40 mins in presence of [gamma33P]ATP by scintillation counting method relative to control
Sequence of Serine/threonine-protein kinase TBK1 (Homo sapiens) (Q9UHD2 whole entry): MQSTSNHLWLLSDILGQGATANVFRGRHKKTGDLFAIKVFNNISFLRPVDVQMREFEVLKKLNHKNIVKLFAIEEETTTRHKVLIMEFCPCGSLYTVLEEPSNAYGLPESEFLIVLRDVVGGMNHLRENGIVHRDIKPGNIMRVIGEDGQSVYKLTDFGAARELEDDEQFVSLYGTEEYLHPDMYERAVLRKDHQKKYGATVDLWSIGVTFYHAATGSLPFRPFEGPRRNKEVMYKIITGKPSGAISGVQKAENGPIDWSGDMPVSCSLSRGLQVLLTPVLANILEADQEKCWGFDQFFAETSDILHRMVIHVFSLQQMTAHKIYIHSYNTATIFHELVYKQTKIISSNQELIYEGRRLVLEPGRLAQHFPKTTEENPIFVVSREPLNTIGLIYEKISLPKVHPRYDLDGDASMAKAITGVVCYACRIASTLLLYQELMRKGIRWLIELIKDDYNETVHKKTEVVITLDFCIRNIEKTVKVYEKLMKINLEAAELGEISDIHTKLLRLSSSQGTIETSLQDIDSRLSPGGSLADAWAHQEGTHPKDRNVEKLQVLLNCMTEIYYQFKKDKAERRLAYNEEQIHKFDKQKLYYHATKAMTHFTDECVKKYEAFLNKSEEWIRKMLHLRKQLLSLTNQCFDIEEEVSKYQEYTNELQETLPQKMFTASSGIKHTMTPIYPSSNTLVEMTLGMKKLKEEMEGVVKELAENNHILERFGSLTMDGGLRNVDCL

[20] = test system: Angiopoietin-1 receptor (Homo sapiens), Q02763 [Q939H,Q940H]; experiment: Inhibition of human Tie2 Q939H/Q940H mutant (771 to end residues) assessed as residual activity at 1 uM using poly(Glu, Tyr) 4:1 as substrate measured after 40 mins in presence of [gamma33P]ATP by scintillation counting method relative to control
[21] = biological target: Serine/threonine-protein kinase VRK1 (Homo sapiens) (UniProt Q99986); experiment: Inhibition of human VRK1 assessed as residual activity at 1 uM by radiometric method relative to control
Sequence of Serine/threonine-protein kinase VRK1 (Homo sapiens) (Q99986 whole entry): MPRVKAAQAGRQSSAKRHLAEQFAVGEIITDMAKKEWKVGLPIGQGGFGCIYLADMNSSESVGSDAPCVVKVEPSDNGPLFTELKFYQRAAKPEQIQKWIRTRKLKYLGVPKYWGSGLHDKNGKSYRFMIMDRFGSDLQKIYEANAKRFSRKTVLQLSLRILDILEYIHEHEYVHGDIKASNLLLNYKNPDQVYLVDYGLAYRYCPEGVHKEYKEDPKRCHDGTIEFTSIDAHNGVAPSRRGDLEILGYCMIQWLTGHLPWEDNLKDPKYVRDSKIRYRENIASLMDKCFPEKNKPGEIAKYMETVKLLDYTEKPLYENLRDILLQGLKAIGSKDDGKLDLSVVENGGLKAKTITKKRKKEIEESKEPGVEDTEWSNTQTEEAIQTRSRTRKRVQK

Homo sapiens = organism: Homo sapiens; experiment: Inhibition of recombinant full-length human PI3K p120gamma R459Q mutant at 1 uM assessed as residual activity at 1 uM using phosphatidylinositol-4, 5-bisphosphate as substrate measured after 40 mins by fluorescence assay

Structure (SMILES): N=C1NC(=O)/C(=C\c2ccc(-c3cccc([N+](=O)[O-])c3)o2)S1
- Activity [1]: 75%
- Activity [2]: 99%
- Activity [3]: 98%
- Activity [4]: 65%
- Activity [5]: 111%
- Activity [6]: 89%
- Activity [7]: 96%
- Activity [8]: 102%
- Activity [9]: 112%
- Activity [10]: 89%
- Activity [11]: 100%
- Activity [12]: 96%
- Activity [13]: 96%
- Activity [14]: 98%
- Activity [15]: 91%
- Activity [16]: 102%
- Activity [17]: 103%
- Activity [18]: 90%
- Activity [19]: 105%
- Activity [20]: 113%
- Activity [21]: 92%
- Activity (Homo sapiens): 93%

Structure (SMILES): C=CCOC(=O)c1cc(-c2ccc(/C=C3/NC(=S)NC3=O)o2)ccc1Cl
- Activity [1]: 103%
- Activity [2]: 95%
- Activity [3]: 101%
- Activity [4]: 58%
- Activity [5]: 97%
- Activity [6]: 100%
- Activity [7]: 101%
- Activity [8]: 108%
- Activity [9]: 100%
- Activity [10]: 86%
- Activity [11]: 96%
- Activity [12]: 102%
- Activity [13]: 89%
- Activity [14]: 92%
- Activity [15]: 94%
- Activity [16]: 105%
- Activity [17]: 99%
- Activity [18]: 98%
- Activity [19]: 98%
- Activity [20]: 107%
- Activity [21]: 99%
- Activity (Homo sapiens): 93%
